Data reported in patent US6204293A, “Inhibitors of protein isoprenyl transferases” (University of Pittsburgh, priority 1998, dated 2001).
Counter-ions that a name gives are not always drawn.

target: T1, Rat brain protein farnesyltransferase (Rattus norvegicus, UniProt Q02293+Q04631); assay: % inhibition of farnesylation, scintillation proximity assay with biotin-K Ras B fragment; type: biochemical; details: Table 1; 1 × 10^-5 M
T1 construct: Rat brain protein farnesyltransferase activity is measured; from tissue; host or cells: rat brain
T1 sequence (Q02293 whole entry, the tested form may be a part, one chain of several): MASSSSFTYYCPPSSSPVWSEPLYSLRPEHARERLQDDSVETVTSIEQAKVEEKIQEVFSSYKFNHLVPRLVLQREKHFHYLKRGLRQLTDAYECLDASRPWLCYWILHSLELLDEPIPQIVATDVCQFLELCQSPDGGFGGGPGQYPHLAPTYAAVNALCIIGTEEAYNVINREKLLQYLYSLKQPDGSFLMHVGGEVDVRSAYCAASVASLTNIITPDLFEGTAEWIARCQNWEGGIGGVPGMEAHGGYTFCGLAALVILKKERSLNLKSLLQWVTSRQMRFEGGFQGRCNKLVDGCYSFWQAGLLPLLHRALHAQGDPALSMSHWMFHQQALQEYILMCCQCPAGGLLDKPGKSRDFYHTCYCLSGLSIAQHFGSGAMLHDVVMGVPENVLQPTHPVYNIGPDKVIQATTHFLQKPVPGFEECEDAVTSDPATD
Procedure, shortened: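 Scintillation proximity read-out of farnesylation, using a biotinylated K Ras B fragment (0.1 mM final) in place of biotin-lamin. Enzyme purified from rat brain; results given as % inhibition.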

SMILES | % inhibition at 1 × 10^-5 M [%]
C=C[C@@H](CC1CCCCC1)NCc1ccc(C(=O)N[C@@H](CCSC)C(=O)O)c(-c2ccccc2)c1 [Example 664] | 75
CSCC[C@H](NC(=O)c1ccc(CNc2cccc(Oc3ccccc3)c2)cc1-c1ccccc1)C(=O)O [Example 686] | 48
CSCC[C@H](NC(=O)c1ccc(CNc2ccc(C3CCCCC3)cc2)cc1-c1ccccc1)C(=O)O [Example 699] | 74

same assay, conditions: Table 2; 1 × 10^-6 M

SMILES | % inhibition at 1 × 10^-6 M [%]
CSCC[C@H](NC(=O)c1ccc(S(=O)(=O)NCCCn2ccnc2)cc1-c1ccccc1C)C(=O)O [Example 777] | 83
CSCC[C@H](NC(=O)c1ccc(CN2CCN(C(=O)OC(C)(C)C)CC2)cc1-c1ccccc1C)C(=O)O [Example 866] | 62
CSCC[C@H](NC(=O)c1ccc(CN(C(=O)OC(C)(C)C)C(CC2CCCCC2)CC2CCCCC2)cc1-c1ccccc1C)C(=O)O [Example 886] | 35
CSCC[C@H](NC(=O)c1ccc(NC(=O)C[C@H]2C[C@@H](C(C)=O)C2(C)C)cc1-c1ccccc1)C(=O)O [Example 751] | 32
CSCC[C@H](NC(=O)c1ccc(NC(=O)C2CCC(=O)N2)cc1-c1ccccc1)C(=O)O (stereo partly drawn) [Example 202] | 31
Cc1ccccc1-c1cc(CNC(C)(C)Cc2ccccc2)ccc1C(=O)N[C@@H](CCS(C)(=O)=O)C(=O)O [Example 311] | 97
CCS(=O)(=O)C[C@H](CC1CCCCC1)NCc1ccc(C(=O)N[C@@H](CCSC)C(=O)O)c(-c2ccccc2C)c1 [Example 620] | 98
Cc1ccccc1-c1cc(CN(C2CC2)C2(CC3CCCCC3)CCCC2)ccc1C(=O)N[C@@H](CCS(C)(=O)=O)C(=O)O [Example 346] | 98
CSCC[C@H](NC(=O)c1ccc(CN(Cc2ccco2)C(C)C)cc1-c1ccccc1C)C(=O)O [Example 831] | 92
CSCC[C@H](NC(=O)c1ccc(NC(=O)C2=C(C(F)(F)F)C=CNC2)cc1-c1ccccc1)C(=O)O [Example 283] | 98
CSCC[C@H](NC(=O)c1ccc(CN(C(C)C)C(C)(C)CC2CCCCC2)cc1-c1ccccc1C)C(=O)O [Example 318] | 98
CSCC[C@H](NC(=O)c1ccc(CCCCC2CCCCC2)cc1-c1ccccc1C)C(=O)O [Example 478] | 98
Cc1ccccc1-c1cc(CCc2ccccc2Oc2ccccc2)ccc1C(=O)N[C@@H](CC[S+](C)[O-])C(=O)O (stereo partly drawn) [Example 456] | 81
CSCC[C@H](NC(=O)c1ccc(C[C@H]2CC[C@@H](c3ccccc3)CC2)cc1-c1ccccc1C)C(=O)O [Example 790] | 88
CSCC[C@H](NC(=O)c1ccc(CNC(CO)Cc2ccc(Cl)cc2)cc1-c1ccccc1)C(=O)O (stereo partly drawn) [Example 662] | 68
CSCC[C@H](NC(=O)c1ccc(CN(Cc2ccccc2)c2ccccc2Cl)cc1-c1ccccc1C)C(=O)O [Example 846] | 85

same assay, conditions: Table 3; 1 × 10^-7 M

SMILES | % inhibition at 1 × 10^-7 M [%]
CSCC[C@H](NC(=O)c1ccc(CCc2ccc(Oc3ccccc3)cc2)cc1-c1ccccc1C)C(=O)[O-].[Li+] [Example 462] | 91
CSCC[C@H](NC(=O)c1ccc(CNC(CC2CCCCC2)CC2CCCCC2)cc1-c1ccccc1C)C(=O)O [Example 524] | 99
CSCC[C@H](NC(=O)c1ccc(CNCC(=O)N(Cc2ccccc2)Cc2ccccc2)cc1-c1ccccc1C)C(=O)O [Example 914] | 91
CSCC[C@H](NC(=O)c1ccc(CNCCc2c[nH]c3ccccc23)cc1-c1ccccc1C)C(=O)O [Example 519] | 89
CSCC[C@H](NC(=O)c1ccc(CN(c2ccccc2)S(=O)(=O)c2ccc(C)cc2)cc1-c1ccccc1C)C(=O)O [Example 770] | 91
CSCC[C@H](NC(=O)c1ccc(CCc2ccc(Oc3cccc(Cl)c3)cc2)cc1-c1ccccc1C)C(=O)O [Example 859] | 86
CSCC[C@H](NC(=O)c1ccc(CN(CCC23CC4CC(CC(C4)C2)C3)c2ccccc2)cc1-c1ccccc1C)C(=O)O [Example 511] | 82
CSCC[C@H](NC(=O)c1ccc(/C=C/c2ccc(Oc3ccccc3Cl)cc2)cc1-c1ccccc1C)C(=O)O [Example 854] | 78

same assay, conditions: Table 4; 1 × 10^-8 M

SMILES | % inhibition at 1 × 10^-8 M [%]
CCCCN(CCc1ccccc1)Cc1ccc(C(=O)N[C@@H](CCSC)C(=O)O)c(-c2ccccc2C)c1 [Example 928] | 84
CSCC[C@H](NC(=O)c1ccc(CN(C)CCC2CCCCC2)cc1-c1ccccc1C)C(=O)[O-].[Li+] [Example 608] | 91
CCSC[C@H](CC1CCCCC1)N(C=O)Cc1ccc(C(=O)N[C@@H](CCSC)C(=O)O)c(-c2ccccc2C)c1 [Example 946] | 52

same assay, conditions: Table 6; * footnote 0.1 μM (title: 0.1 mM)

SMILES | % inhibition at 0.1 μM (*) [%]
CCCCN(CCN1CCCCC1)Cc1ccc(C(=O)N[C@@H](CCSC)C(=O)O)c(-c2ccccc2C)c1 [Example 1196] | 87

same assay, conditions: read-out: % inhibition at 0.01 μM (**)

SMILES | inhibition at 0.01 µM [%]
CCCCOCC(CC1CCCCC1)OCc1ccc(C(=O)N[C@@H](CCSC)C(=O)O)c(-c2ccccc2C)c1 (stereo partly drawn) [Example 1308, N-[4-(3-Cyclohexyl-1-butoxyprop-2-yloxymethyl)-2-(2-methylphenyl)benzoyl]methionine Lithium Salt] | 91

same assay, conditions: read-out: % inhibition at 0.01 μM (**); Table 6; ** footnote 0.01 μM (title: 0.01 mM)

SMILES | inhibition at 0.01 µM [%]
CSCC[C@H](NC(=O)c1ccc(CO[C@H](CO)CC2CCCCC2)cc1-c1ccccc1C)C(=O)O [Example 1049, N-[4-(3-cyclohexyl-1-hydroxyprop-2-yloxymethyl)-2-(2-methylphenyl)benzoyl]methionine, lithium salt] | 93
CSCC[C@H](NC(=O)c1ccc(CO[C@@H](CC2CCCCC2)C(=O)N2CCOCC2)cc1-c1ccccc1C)C(=O)O [Example 1053, N-[4-(3-cyclohexyl-N-morpholin-4-ylpropion-2-yloxymethyl)-2-(2-methylphenyl)benzoyl]methionine, lithium salt] | 60

same assay, conditions: read-out: % inhibition at 0.1 μM (*)

SMILES | inhibition at 0.1 µM [%]
CCCCC(OCc1ccc(C(=O)N[C@@H](CCSC)C(=O)O)c(-c2ccccc2C)c1)c1cccc(OC)c1 (stereo partly drawn) [Example 1208, N-[4-(1-(3-Methoxyphenyl)pentan-1-yloxymethyl)-2-(2-methylphenyl)benzoyl]methionine lithium salt] | 89

same assay, conditions: read-out: % inhibition at 0.1 μM (*); Table 6; * footnote 0.1 μM (title: 0.1 mM)

SMILES | inhibition at 0.1 µM [%]
CSCC[C@H](NC(=O)c1ccc(COC(c2ccccc2)C2CCN(S(=O)(=O)c3ccccc3)CC2)cc1-c1ccccc1C)C(=O)O (stereo partly drawn) [Example 1252, N-[4-(1-(4-(N-phenylsulfonyl)piperidinyl)benzyloxymethyl-2-(2-methylphenyl)benzoyl]methioninelithium salt] | 84

same assay, conditions: read-out: % inhibition at 1 × 10^-6 M

SMILES | inhibition at 1 µM [%]
CSCC[C@H](NC(=O)c1ccc(CSCc2ccccc2)cc1-c1ccccc1C)C(=O)O [Example 554, N-[4-benzylthiomethyl-2-(2-methylphenyl)benzoyl]methionine, lithium salt] | 96
CSCC[C@H](NC(=O)c1ccc(COCCCc2ccccc2)cc1-c1ccccc1C)C(=O)O [Example 595, N-[4-(3-phenylpropoxymethyl)-2-(2-methylphenyl)benzoyl]methionine lithium salt] | 97

same assay, conditions: read-out: % inhibition at 1 × 10^-6 M; Table 2; 1 × 10^-6 M

SMILES | inhibition at 1 µM [%]
CSCC[C@H](NC(=O)c1ccc(CSc2nc3ccccc3s2)cc1-c1ccccc1C)C(=O)O [Example 323, [4-(2-benzothiazolylthiomethyl)-2-(2-methylphenyl)benzoyl]methionine] | 98
CSCC[C@H](NC(=O)c1ccc(COCC2CCCO2)cc1-c1ccccc1)C(=O)O (stereo partly drawn) [Example 288, [4-(2-tetrahydrofurylmethyloxymethyl)-2-phenylbenzoyl]methionine] | 22
CSCC[C@H](NC(=O)c1ccc(OC/C=C(\C)CCC=C(C)C)cc1-c1ccccc1C)C(=O)O [Example 546, N-[4-geranyloxy-2-(2-methylphenyl)benzoyl]methionine, lithium salt] | 97
CSCC[C@H](NC(=O)c1ccc(OC/C=C(\C)CC/C=C(\C)CCC=C(C)C)cc1-c1ccccc1C)C(=O)O [Example 547, N-[4-farnesyloxy-2-(2-methylphenyl)benzoyl]methionine, lithium salt] | 91

same assay, conditions: read-out: % inhibition at 1 × 10^-7 M

SMILES | inhibition at 0.1 µM [%]
CSCC[C@H](NC(=O)c1ccc(COCCc2ccc(-c3ccc(F)cc3)o2)cc1-c1ccccc1C)C(=O)O [Example 535, N-[4-(5-(4-fluorophenyl)furan-2-ylethoxymethyl)-2-(2-methylphenyl)benzoyl]methionine lithium salt] | 89
CSCC[C@H](NC(=O)c1ccc(COCc2ccccc2)cc1-c1ccccc1C)C(=O)O [Example 571, N-[4-(benzyloxymethyl)-2-(2-methylphenyl)benzoyl]methionine lithium salt] | 88
CSCC[C@H](NC(=O)c1ccc(COCc2cc3ccccc3o2)cc1-c1ccccc1C)C(=O)O [Example 533, N-[4-(benzofuran-2-ylmethoxymethyl)-2-(2-methylphenyl)benzoyl]methionine lithium salt] | 91
CSCC[C@H](NC(=O)c1ccc(COCc2ccc(-c3ccc(C=O)cc3)o2)cc1-c1ccccc1C)C(=O)O [Example 448, N-[4-(5-(4-formylphenyl)furan-2-ylmethoxymethyl)-2-(2-methylphenyl)benzoyl]methionine lithium salt] | 92
CSCC[C@H](NC(=O)c1ccc(COCC2CCCCC2)cc1-c1ccccc1C)C(=O)O [Example 585, N-[4-(cyclohexylmethoxymethyl)-2-(2-methylphenyl)benzoyl]methionine lithium salt] | 96

same assay, conditions: read-out: % inhibition at 1 × 10^-7 M; Table 3; 1 × 10^-7 M

SMILES | inhibition at 0.1 µM [%]
CSCC[C@H](NC(=O)c1ccc(CSc2nnc(N)s2)cc1-c1ccccc1C)C(=O)O [Example 734] | 49
